Reference: patent US6569867B2, “Polyketide derivatives” (Kosan Biosciences, Inc., priority 1999, dated 2003)
“And” between values parts separate entries of the source, which are not always exact repeats. Equal values may be shown once. Read-outs that look alike come from different tables or passages of the source.

Key:
FKBP-12 = molecular target: T1, FKBP-12 (Homo sapiens, UniProt P62942); assay: FKBP-12 binding assay ([3H]FK-506 competition)
T1 construct: purchased Sigma; host or cells: E. coli
Procedure: Calcineurin (“>95% pure by SDS/PAGE”) was obtained from Calbiochem. Neutravidin® coated strip plates, pre-blocked with SuperBlock® were obtained from Pierce. […] Synthetic RII peptide (^+[…]^-) was obtained from Peptides International (Louisville, […].com). […] ATP, cAMP, the catalytic subunit of protein kinase A, bovine brain calmodulin and human FKBP, expressed in E. coli were obtained from Sigma. […] The mixture was incubated for 2 hours at 0° C., the solution was aspirated from the wells, and each well was quickly washed with 300 uL of ice cold PBS-tween. Wells were broken apart, placed in scintillation vials with 10 mL of Scintiverse BD and bound radioactivity was quantitated by scintillation counting. […] to calculate the Kd.

Human 3A4 P-450 = molecular target: T2, Human 3A4 P-450 (Homo sapiens, UniProt P08684); assay: P450 stability assay with 3A4 P-450 supersomes; type: in vitro ADME; conditions: 20 μM FK species, 200 pmole P-450/mL, 37° C.
T2 construct: purchased Gentest Corporation (Woburn, Mass.) P207
Procedure: A mixture containing FK species and a NADPH regenerating system was pre-incubated at 37° C. for 10 minutes before the reaction was commenced by the addition of the P-450 supersomes. The final concentrations of the components were: 100 mM potassium phosphate, pH 7.4; 3.3 mM MgCl2; 3.3 mM glucose-6-phosphate; 1.3 mM NADP; 0.4 U/mL glucose-6-phosphate dehydrogenase; 200 pmole P-450/mL; and 20 μM FK species. Control reactions contained “mock” supersomes without 3A4 P-450 activity. Human 3A4 P-450+Reductase supersomes (cat #P207) and vector control “mock” supersomes without 3A4P-450 (cat #P201) were obtained from Gentest Corporation (Woburn, Mass.).
Following addition of supersomes or mock supersomes, reactions were terminated at 0 minutes (immediately upon addition of P-450) and 30 minutes by addition of acetonitrile containing 0.1% acetic acid to 20% final acetonitrile concentration, followed by freezing immediately on dry ice. For reactions containing the 13-desmethoxy-13-methyl-32-(2-hydroxyethylindolyl)-FK analog, an equal volume of MeOH was added following addition of acetonitrile and the samples were immediately frozen on dry ice. The samples were clarified by centrifugation at 13,000 rpm for 5 minutes at 4° C. in a micro centrifuge prior to HPLC analysis.
The following HPLC program was employed: Column =MetaChem 0.46×15 cm intersil C18 column (5 μm); Solvent A=0.1% HOAc in water; Solvent B=0.1 % HOAc in acetonitrile. Detection=UV (210 nm) and ELSD. Gradient: Equilibration with 20% B; injection (up to 1 ml), hold at 20% B for 5 minutes; linear gradient to 50% B in 5 minutes; linear gradient to 100% B in 20 minutes; to 20% B in 1 minute; hold at 20% B for 10 minutes to equilibrate.
There was no change in peak area after 30 minutes when the FK analogs were incubated with mock supersomes.

[1] = system: SH-SY5Y human neuroblastoma cells; assay: Nerve growth (neurite length) assay; type: cell-based
Procedure: Table 9 summarizes the results of nerve growth as using SH-SY5Y human neuroblastoma cells according to Gold et al., Exp Neuro, 147(2): 269-87 (1997) which is incorporated herein by reference. The assay measures the mean neurite length in […] that were induced at 0.1 nM and 10 nM of the compound of interested after 96 or 168 hours.

[2] = cited from earlier work
calcineurin = calcineurin (Bos taurus, UniProt P48452+P62942+P63099); assay: Calcineurin phosphatase inhibition assay (FKBP-compound complex); type: biochemical; conditions: 15 nM calcineurin, 30 nM calmodulin, 1 uM phospho-RII peptide, 30° C.
Procedure: The catalytic subunit of protein kinase A was used to transfer the labeled phosphate from [γ-^32P]ATP to […] of the RII peptide. […] Fractions were collected and monitored by scintillation counting. […] The columns were prepared by resuspending the resin in water such that there was one volume of water above each volume of settled resin. The slurry (1 mL) was then pipetted into each column, followed by 10 mL of water. The bed volume was verified, then each column was washed with 1 mL 1 N NaOH, 2 mL 1 N HCl, and 4 mL water. Quenched reaction mixtures were applied to the columns, washed twice with 750 uL of water and the eluate was collected directly into scintillation vials. Scintiverse BD (15 mL) was added to each vial, and ^32PO4 was quantitated by scintillation counting. […] Following a 30 minute preincubation, reactions were initiated by addition of the phospho-RII peptide substrate to 1 uM and incubated at 30° C. Aliquots were removed at 3 and 35 minutes, quenched, and PO4 release was measured as described above.

Kd (FKBP-12) [nM] | P450 % Stability (at 30 min) (Human 3A4 P-450) | Compound | Neurite Length at 0.1 nM 96 h [1] [µm] | Neurite Length at 0.1 nM 168 h [1] [µm] | other results
0.4 | 46% | CC[C@@H]1/C=C(\C)C[C@H](C)C[C@H](OC)[C@H]2O[C@@](O)(C(=O)C(=O)N3CCCC[C@H]3C(=O)O[C@H](/C(C)=C/[C@@H]3CC[C@@H](O)[C@H](OC)C3)[C@H](C)[C@@H](O)CC1=O)[C@H](C)C[C@@H]2OC [FK-520, ascomycin, reference compound] | – | – | –
1.6 | 26% | CC[C@@H]1/C=C(\C)C[C@H](C)C[C@H](OC)[C@H]2O[C@@](O)(C(=O)C(=O)N3CCCC[C@H]3C(=O)O[C@H](/C(C)=C/[C@@H]3CC[C@@H](O)[C@H](OC)C3)[C@H](C)[C@@H](O)CC1=O)[C@H](C)C[C@@H]2C [13-desmethoxy-13-methyl-FK-520] | – | – | –
– | – | 18-ene-20-oxa-13-desmethoxy-13-methyl-FK-520 | 144 | 184 | Neurite Length at 10 nM 96 h [1]: 104 µm; Neurite Length at 10 nM 168 h [1]: 135 µm
~1 | – | CC[C@@H]1/C=C(\C)C(O)[C@H](C)C[C@H](OC)[C@H]2O[C@@](O)(C(=O)C(=O)N3CCCC[C@H]3C(=O)O[C@H](/C(C)=C/[C@@H]3CC[C@@H](O)[C@H](OC)C3)[C@H](C)[C@@H](O)CC1=O)[C@H](C)C[C@@H]2C (stereo partly drawn) [13-desmethoxy-13-methyl-18-hydroxyl-FK-520] | 168 | 191 | Neurite Length at 10 nM 96 h [1]: 132 µm; Neurite Length at 10 nM 168 h [1]: 165 µm
– | – | C=CC[C@@H]1/C=C(\C)C[C@H](C)C[C@H](OC)[C@H]2O[C@@](O)(C(=O)C(=O)N3CCCC[C@H]3C(=O)O[C@H](/C(C)=C/[C@@H]3CC[C@@H](O)[C@H](OC)C3)[C@H](C)[C@@H](O)CC1=O)[C@H](C)C[C@@H]2OC.O [FK-506, tacrolimus] | – | – | excreted unchanged in urine ([2]; in vivo): less than 1%; half-life for distribution ([2]; in vivo): 54 min; bioavailability with co-administration of ketoconazole ([2]; ketoconazole, a drug that inhibits P450 3A): doubles; mean bioavailability of the oral dosage form ([2]; oral, range 5 to 65%): 27%
0.4 | 35% | CC[C@@H]1/C=C(\C)C[C@H](C)C[C@H](OC)[C@@H]2CC[C@@H](C)[C@@](O)(O2)C(=O)C(=O)N2CCCC[C@H]2C(=O)O[C@H](/C(C)=C/[C@@H]2CC[C@@H](O)[C@H](OC)C2)[C@H](C)[C@@H](O)CC1=O [13-desmethoxy-FK-520] | – | – | –
– | – | Nerve Growth Factor: protein neurotrophic molecule used as comparator in the neurite length assay | 143 | 169 | –

Compound | Kd (FKBP-12) [nM] | P450 % Stability (at 30 min) (Human 3A4 P-450) | Neurite Length at 0.1 nM 96 h [1] [µm] | Neurite Length at 0.1 nM 168 h [1] [µm] | other results
32-[1-(2-Hydroxyethyl)-indol-5-yl]-13-desmethoxy-FK-520 | – | 72% and 77% | – | – | Ki (calcineurin): < 15 nM and 22 nM; Kd (FKBP-12; competition with 0.5 μM [3H]FK-506, 2 hours at 0° C., Kd of [3H]FK-506 assumed to be 0.4 nM): 16.3 nM and 10.4 nM
